Data: US9902736B2, “1-oxo/acylation-14-acylated oridonin derivative, preparation method therefor and application thereof” (HANGZHOU BENSHENG PHARMACEUTICAL CO., LTD., priority 2012, dated 2018)
In brackets after ≈: the same amount, converted by molar mass.

Legend:
H9 = experiment: Leukemia cell growth inhibition, MTT, 72 h; format: cell-based, human; conditions: Homo sapiens, H9; 72 h, MTT
Text: (§1) Leukemia cell lines: leukemia cell lines: K562/adr (drug-resistant, chronic myeloid leukemia, CML), NB4 (acute promyelocytic leukemia, AML), Kasumi-1 (acute myeloid leukemia M2 type, AML-M2), Jurkat (acute lymphoblastic leukemia, ALL), all of which were donated by Cancer Research Institute of Zhejiang University, China; and H9 (acute lymphoblastic leukemia, ALL), which was purchased from China Center for Type Culture Collection.
(§2) 6000 well-growing leukemia cells were obtained and inoculated into wells of a 96-well cell culture plate. […] On the next day, the 1-oxo/acylated-14-acylated oridonin derivatives of different concentrations were added and mixed uniformly. The plate was placed in a carbon dioxide cell incubator (5% CO2) at 37° C. and was incubated for 72 hours. Then the viable cell concentration was determined by MTT method.

Jurkat = experiment: Leukemia cell growth inhibition, MTT, 72 h; format: cell-based, human; conditions: Homo sapiens, Jurkat; 72 h, MTT
Text: as §1, §2

NB4 = experiment: Leukemia cell growth inhibition, MTT, 72 h; format: cell-based, human; conditions: Homo sapiens, NB-4; 72 h, MTT
Text: as §1, §2

Hep-2 = experiment: Solid tumor cell growth inhibition, MTT, 72 h; format: cell-based, human; conditions: Homo sapiens, HEp-2; 72 h, MTT
Protocol: (§3) 6000 well-growing human solid tumor cells were obtained and inoculated into wells of a 96-well cell culture plate. The culture medium was DMEM High Glucose cell culture medium containing 10% fetal bovine serum. The plate was placed in a carbon dioxide cell incubator (5% CO2) at 37° C. and incubated for 24 hours. After added with 1-oxo/acylated-14-acylated oridonin derivatives of different concentration and mixed uniformly, the plate was placed in a carbon dioxide cell incubator (5% CO2) at 37° C. and incubated for 72 hours. Then the viable cell concentration was determined by MTT method.

MGC-803 = experiment: Solid tumor cell growth inhibition, MTT, 72 h; format: cell-based, human; conditions: Homo sapiens, MGC-803; 72 h, MTT
Protocol: as §3

CNE = experiment: Solid tumor cell growth inhibition, MTT, 72 h; format: cell-based, human; conditions: Homo sapiens, CNE; 72 h, MTT
Protocol: as §3

Hela = experiment: Solid tumor cell growth inhibition, MTT, 72 h; format: cell-based, human; conditions: Homo sapiens, HeLa; 72 h, MTT
Protocol: as §3

RPMI 8226 = experiment: Multiple myeloma cell growth inhibition, MTT, 72 h; format: cell-based; conditions: Homo sapiens
Protocol: Multiple myeloma cell lines: RPMI8226 (multiple myeloma), purchased from Fuxiang Bio-tech Co. Ltd., Shanghai, China.
as §2, with “well-growing” for “well-growing leukemia”, “and” for “and was”

Kasumi-1 = experiment: Leukemia cell growth inhibition, MTT, 72 h; format: cell-based; conditions: Homo sapiens
Text: as §1, §2

K562/ADR = experiment: Leukemia cell growth inhibition, MTT, 72 h; format: cell-based; conditions: Homo sapiens
Text: as §1, §2

SK-OV-3 = experiment: Solid tumor cell growth inhibition, MTT, 72 h; format: cell-based; conditions: Homo sapiens, SK-OV-3, 72 h, MTT; for IC50: read-out: IC50 SK-OV-3; for IC90: read-out: IC90 SK-OV-3
Protocol: as §3

PC-3 = experiment: Solid tumor cell growth inhibition, MTT, 72 h; format: cell-based; conditions: Homo sapiens
Protocol: as §3

RKO = experiment: Solid tumor cell growth inhibition, MTT, 72 h; format: cell-based; conditions: Homo sapiens
Protocol: as §3

CaEs-17 = experiment: Solid tumor cell growth inhibition, MTT, 72 h; format: cell-based; conditions: Homo sapiens, CaEs17
Protocol: as §3

A549 = experiment: Solid tumor cell growth inhibition, MTT, 72 h; format: cell-based; conditions: Homo sapiens
Protocol: as §3

MG-63 = experiment: Solid tumor cell growth inhibition, MTT, 72 h; format: cell-based; conditions: Homo sapiens
Protocol: as §3

Hep G2 = experiment: Solid tumor cell growth inhibition, MTT, 72 h; format: cell-based; conditions: Homo sapiens, HepG2
Protocol: as §3

U87-MG = experiment: Solid tumor cell growth inhibition, MTT, 72 h; format: cell-based; conditions: Homo sapiens, U-87 MG
Protocol: as §3

Becap-37 = experiment: Solid tumor cell growth inhibition, MTT, 72 h; format: cell-based; conditions: Homo sapiens
Protocol: as §3

PANC-1 = experiment: Solid tumor cell growth inhibition, MTT, 72 h; format: cell-based; conditions: Homo sapiens
Protocol: as §3

IC50 (H9) [µg/mL]	IC90 (H9) [µg/mL]	IC50 (Jurkat) [µg/mL]	IC90 (Jurkat) [µg/mL]	IC50 (NB4) [µg/mL]	IC90 (NB4) [µg/mL]	IC50 (Hep-2) [µg/mL]	IC90 (Hep-2) [µg/mL]	IC50 (MGC-803) [µg/mL]	IC90 (MGC-803) [µg/mL]	IC50 (CNE) [µg/mL]	IC90 (CNE) [µg/mL]	IC50 (Hela) [µg/mL]	IC90 (Hela) [µg/mL]	IC50 (RPMI 8226) [µg/mL]	IC90 (RPMI 8226) [µg/mL]	IC50 (Kasumi-1) [µg/mL]	IC90 (Kasumi-1) [µg/mL]	IC50 (K562/ADR) [µg/mL]	IC90 (K562/ADR) [µg/mL]	Structure (SMILES)	further results
0.89 (≈ 1.63 µM)	1.84 (≈ 3.37 µM)	0.88 (≈ 1.61 µM)	4.31 (≈ 7.9 µM)	0.27 (≈ 0.495 µM)	1.34 (≈ 2.46 µM)	1.92 (≈ 3.52 µM)	7.4 (≈ 13.6 µM)	1.65 (≈ 3.03 µM)	8.86 (≈ 16.2 µM)	1.8 (≈ 3.3 µM)	7.21 (≈ 13.2 µM)	1.79 (≈ 3.28 µM)	7.19 (≈ 13.2 µM)	0.59 (≈ 1.08 µM)	3.84 (≈ 7.04 µM)	0.76 (≈ 1.39 µM)	2.85 (≈ 5.23 µM)	0.73 (≈ 1.34 µM)	2.31 (≈ 4.24 µM)	C=C1C(=O)[C@]23[C@H](OC(=O)c4ccccc4Br)[C@H]1CC[C@H]2[C@@]12CO[C@@]3(O)[C@@H](O)[C@@H]1C(C)(C)CCC2=O [BS-OR-020]	IC50 (SK-OV-3): 2.56 µg/mL (≈ 4.69 µM); IC90 (SK-OV-3): 7.07 µg/mL (≈ 13 µM); IC50 (PC-3): 2.56 µg/mL (≈ 4.69 µM); IC90 (PC-3): 7.07 µg/mL (≈ 13 µM); IC50 (RKO): 0.84 µg/mL (≈ 1.54 µM); IC90 (RKO): 1.94 µg/mL (≈ 3.56 µM); IC50 (CaEs-17): 1.78 µg/mL (≈ 3.26 µM); IC90 (CaEs-17): 7.28 µg/mL (≈ 13.3 µM); IC50 (A549): 2.76 µg/mL (≈ 5.06 µM); IC90 (A549): 5.78 µg/mL (≈ 10.6 µM); IC50 (MG-63): 0.76 µg/mL (≈ 1.39 µM); IC90 (MG-63): 4.52 µg/mL (≈ 8.29 µM); IC50 (Hep G2): 1.68 µg/mL (≈ 3.08 µM); IC90 (Hep G2): 7.35 µg/mL (≈ 13.5 µM); IC50 (U87-MG): 1.19 µg/mL (≈ 2.18 µM); IC90 (U87-MG): 3.69 µg/mL (≈ 6.77 µM); IC50 (Becap-37): 1.31 µg/mL (≈ 2.4 µM); IC90 (Becap-37): 3.95 µg/mL (≈ 7.24 µM); IC50 (PANC-1): 2.32 µg/mL (≈ 4.25 µM); IC90 (PANC-1): 6.09 µg/mL (≈ 11.2 µM)
6.71 (≈ 10.9 µM)	12.7 (≈ 20.7 µM)	0.93 (≈ 1.52 µM)	6.15 (≈ 10 µM)	4.09 (≈ 6.66 µM)	9.77 (≈ 15.9 µM)	> 16	> 16	12.7 (≈ 20.7 µM)	> 16	> 16	> 16	2.63 (≈ 4.29 µM)	5.67 (≈ 9.24 µM)	1.34 (≈ 2.18 µM)	2.95 (≈ 4.81 µM)	1.5 (≈ 2.44 µM)	2.92 (≈ 4.76 µM)	1.09 (≈ 1.78 µM)	2.97 (≈ 4.84 µM)	C=C1C(=O)[C@]23[C@H](OC(=O)C4CCN(S(=O)(=O)c5ccccc5)CC4)[C@H]1CC[C@H]2[C@@]12CO[C@@]3(O)[C@@H](O)[C@@H]1C(C)(C)CCC2=O [BS-OR-032]	IC50 (SK-OV-3): 3.07 µg/mL (≈ 5 µM); IC90 (SK-OV-3): 5.41 µg/mL (≈ 8.81 µM); IC50 (PC-3): 3.07 µg/mL (≈ 5 µM); IC90 (PC-3): 5.41 µg/mL (≈ 8.81 µM); IC50 (RKO): 0.89 µg/mL (≈ 1.45 µM); IC90 (RKO): 1.99 µg/mL (≈ 3.24 µM); IC50 (CaEs-17): 1.62 µg/mL (≈ 2.64 µM); IC90 (CaEs-17): 11.7 µg/mL (≈ 19.1 µM); IC50 (A549): 5.68 µg/mL (≈ 9.25 µM); IC90 (A549): 9.98 µg/mL (≈ 16.3 µM); IC50 (MG-63): 0.98 µg/mL (≈ 1.6 µM); IC90 (MG-63): 1.97 µg/mL (≈ 3.21 µM); IC50 (Hep G2): 3.17 µg/mL (≈ 5.17 µM); IC90 (Hep G2): ≥ 17.2 µg/mL; IC50 (U87-MG): 1.26 µg/mL (≈ 2.05 µM); IC90 (U87-MG): 4.56 µg/mL (≈ 7.43 µM); IC50 (Becap-37): 2.93 µg/mL (≈ 4.77 µM); IC90 (Becap-37): 10.5 µg/mL (≈ 17.1 µM); IC50 (PANC-1): 3.61 µg/mL (≈ 5.88 µM); IC90 (PANC-1): 7.88 µg/mL (≈ 12.8 µM)
0.78 (≈ 1.18 µM)	1.73 (≈ 2.63 µM)	1.32 (≈ 2 µM)	5.36 (≈ 8.14 µM)	0.5 (≈ 0.759 µM)	1.94 (≈ 2.95 µM)	3.97 (≈ 6.03 µM)	13.3 (≈ 20.3 µM)	2.89 (≈ 4.39 µM)	8.83 (≈ 13.4 µM)	3.73 (≈ 5.66 µM)	10.2 (≈ 15.6 µM)	2.98 (≈ 4.52 µM)	7.76 (≈ 11.8 µM)	1.48 (≈ 2.25 µM)	3.83 (≈ 5.81 µM)	1.58 (≈ 2.4 µM)	3.46 (≈ 5.25 µM)	1.52 (≈ 2.31 µM)	4.77 (≈ 7.24 µM)	C=C1C(=O)[C@]23[C@H](OC(=O)C4CCN(S(=O)(=O)c5ccccc5[N+](=O)[O-])CC4)[C@H]1CC[C@H]2[C@@]12CO[C@@]3(O)[C@@H](O)[C@@H]1C(C)(C)CCC2=O [BS-OR-034]	IC50 (SK-OV-3): 3.88 µg/mL (≈ 5.89 µM); IC90 (SK-OV-3): 9.45 µg/mL (≈ 14.3 µM); IC50 (PC-3): 3.88 µg/mL (≈ 5.89 µM); IC90 (PC-3): 9.45 µg/mL (≈ 14.3 µM); IC50 (RKO): 1.21 µg/mL (≈ 1.84 µM); IC90 (RKO): 1.97 µg/mL (≈ 2.99 µM); IC50 (CaEs-17): 3.48 µg/mL (≈ 5.28 µM); IC90 (CaEs-17): 11 µg/mL (≈ 16.7 µM); IC50 (A549): 6.43 µg/mL (≈ 9.76 µM); IC90 (A549): 11.9 µg/mL (≈ 18.1 µM); IC50 (MG-63): 1.28 µg/mL (≈ 1.94 µM); IC90 (MG-63): 3.22 µg/mL (≈ 4.89 µM); IC50 (Hep G2): 3.81 µg/mL (≈ 5.78 µM); IC90 (Hep G2): > 16 µg/mL; IC50 (U87-MG): 2.16 µg/mL (≈ 3.28 µM); IC90 (U87-MG): 6.75 µg/mL (≈ 10.2 µM); IC50 (Becap-37): 3.24 µg/mL (≈ 4.92 µM); IC90 (Becap-37): 10.1 µg/mL (≈ 15.4 µM); IC50 (PANC-1): 4.99 µg/mL (≈ 7.58 µM); IC90 (PANC-1): 11.9 µg/mL (≈ 18.1 µM)
